Values joined by “and” are separate entries in the source; they are usually repeats but may differ in a detail not shown here. Equal entries are not always repeated.
C1=CCCCC1
Details | viscosity [mPa·s]
303.15 K, 101 kPa | 0.573

C=C(C)C(=O)OCC
101 kPa
Details | viscosity [mPa·s]
298.15 K | 0.6412
303.15 K | 0.5825
308.15 K | 0.5323
313.15 K | 0.4915
318.15 K | 0.4586

CC(=O)[O-].CCCC[NH2+]CCO
101 kPa
Details | viscosity [mPa·s]
293.15 K | 1412
298.15 K | 921.1
303.15 K | 616.9
308.15 K | 423.3
313.15 K | 297
318.15 K | 212.7
323.15 K | 155.3

CC(C)CC1CCCCC1
102 kPa
Details | viscosity [mPa·s]
293.15 K | 1.17
303.15 K | 1
313.15 K | 0.871
323.15 K | 0.765

CC(C)O
Details | viscosity
293.15 K, 101.32 kPa | 2.29 mPa·s
298.15 K, 101.3 kPa | 2.012 mPa·s
298.15 K, 101.33 kPa | 1.936 mPa·s
303 K, 101 kPa | 1.49 mPa·s
303.15 K, 100 kPa | 1.73 mPa·s
303.15 K, 101.33 kPa | 1.878 mPa·s and 1.731 mPa·s and 1.4 mPa·s
308.15 K, 100 kPa | 1.579 mPa·s and 1.49 mPa·s
308.15 K, 101.3 kPa | 1.485 mPa·s
308.15 K, 101.33 kPa | 1.494 mPa·s
313 K, 101 kPa | 1.13 mPa·s
313.15 K, 101 kPa | 1.319 mPa·s and 1.281 mPa·s and 1.4 mPa·s
313.15 K, 101.3 kPa | 1.322 mPa·s
313.15 K, 101.33 kPa | 1.427 mPa·s and 1 mPa·s
318.15 K, 100 kPa | 1.171 mPa·s
318.15 K, 101 kPa | 1.228 mPa·s
323.15 K, 100 kPa | 0.995 mPa·s
323.15 K, 101 kPa | 1.063 mPa·s and 1.083 mPa·s
323.15 K, 101.33 kPa | 1.105 mPa·s and 1.056 mPa·s

CC1CCCCC1
Details | viscosity
293.15 K, 100 kPa | 0.736 mPa·s (2×) and 0.73 mPa·s
293.15 K, 101.2 kPa | 0.7298 mPa·s
298.15 K, 100 kPa | 0.69 mPa·s
298.15 K, 101 kPa | 0.68 mPa·s
298.15 K, 101.2 kPa | 0.6819 mPa·s
303.15 K, 100 kPa | 0.65 mPa·s and 0.639 mPa·s
303.15 K, 101 kPa | 0.6416 mPa·s
303.15 K, 101.2 kPa | 0.6389 mPa·s
303.15 K, 101.3 kPa | 0.6407 mPa·s
303.15 K, 101.33 kPa | 0.639 mPa·s
308.15 K, 100 kPa | 0.61 mPa·s
313.15 K, 100 kPa | 0.568 mPa·s
313.15 K, 101.2 kPa | 0.5641 mPa·s
318.15 K, 100 kPa | 0.54 mPa·s
318.15 K, 101.2 kPa | 0.5314 mPa·s
323.15 K, 100 kPa | 0.51 mPa·s and 0.501 mPa·s

CCC(C)CO (configuration not stated)
viscosity [mPa·s]
Details | 298.15 K | 303.15 K | 313.15 K | 323.15 K
101 kPa | 4.868 | – | – | –
101.33 kPa | – | 3.594 | 2.601 | 1.936

CCCCC1CCCCC1
Details | viscosity [mPa·s]
323.15 K, 100 kPa | 0.835

CCCCCCCCCBr
101 kPa
Details | viscosity [mPa·s]
297.75 K | 1.922
303.55 K | 1.721
313.65 K | 1.458

CCCCCCCCn1cc[n+](C)c1.O=S(=O)([N-]S(=O)(=O)C(F)(F)F)C(F)(F)F
Details | viscosity [mPa·s]
308.15 K, 100 kPa | 56.43

CCCCCN
viscosity [mPa·s]
Details | 293.15 K | 298.15 K | 303.15 K | 308.15 K | 313.15 K | 318.15 K
101 kPa | – | – | 0.5809 | – | – | –
101.33 kPa | 0.656 | 0.609 | 0.563 | 0.523 | 0.484 | 0.457

CCCCC[P+](CC)(CC)CC.O=S(=O)([N-]S(=O)(=O)C(F)(F)F)C(F)(F)F
101.3 kPa
Details | viscosity [mPa·s]
298.15 K | 87.5
303.15 K | 68.8
308.15 K | 54.9
318.15 K | 36.6
323.15 K | 30.5

From the CheMixHub viscosity set
